Laboratory results as given in patent US20130005678A1, “Methods and Compositions for Treating or Ameliorating Cancer Using Gemcitabine-5'-Elaidate” (CLAVIS PHARMA ASA, priority 2010, published 2013).

Key:
Murine Lewis Lung cells = conditions: BDF1 mice; intravenously on Day 1
Method: Murine Lewis Lung cells are intravenously injected to BDF1 mice. Mean survival as well as body weight change and tumor free survivors on Day 72 are endpoints of the study. […] Treatment is administered once daily intraperitoneally on Days 1-4 and 7-11.

CEM cells = assay: Intracellular dFdCTP level in CEM cells with or without dipyridamole (HPLC); assay type: cell-based, human; conditions: 10 μM
Method: hENT1 can inhibited in vitro by various agents including dipyridamole, NBMPR, and NBI. In order to test whether gemcitabine-5′-elaidate entry into the cells is independent of a nucleoside transporter such as hENT1, dipyridamole is used to block hENT1. The intracellular level of dFdCTP is determined in CEM cells after 60 minutes exposure to either dFdC or gemcitabine-5′-elaidate, with or without the addition of dipyridamole (DP). The compounds are administered at 10 μM, and the triphosphates are determined using HPLC. Deamination is blocked using tetrahydrouridine.

pancreatic cancer = assay: Survival of pancreatic cancer patients receiving gemcitabine monotherapy (FIG. 8); assay type: in vivo, human; conditions: hypothetical plot
Method: Patients suffering from pancreatic cancer are administered gemcitabine monotherapy. Post mortem studies of the patients' tumors determine the levels of hENT1 expression in the tumors. FIG. 8 depicts a Kaplan-Meier plot of survival for patients receiving the gemcitabine monotherapy Patients with high hENT1 expression (dotted line) outperform those with areas of hENT1-low tumor.

xenograft mouse models = assay: Correlation of hENT1 mRNA levels and sensitivity to gemcitabine in xenograft mouse models (FIG. 6); assay type: in vivo; conditions: higher expression level of hENT1 mRNA
Source text: FIG. 6 depicts the correlation of hENT1 mRNA levels and sensitivity to gemcitabine in xenograft mouse models. There are many nucleoside transporters and each may move nucleoside analog drugs across the membrane with unique kinetics. A cancer cell which has lower levels nucleoside transporters will be less efficient at transporting these drugs into the cells, reducing the efficacy of the drug. For example a tumor that has low levels of hENT1 is less sensitive to treatment with gemcitabine. FIG. 6 depicts the correlation of hENT1 mRNA levels and sensitivity to gemcitabine in xenograft mouse models. In some aspects low expression of hENT1 on pancreatic tumor cells linked to poor survival after gemcitabine therapy. In addition, hENT1 deficient tumor cells are resistant to pyrimidine nucleoside analogs in vitro. For example, hENT1 mRNA levels are co-related to the sensitivity to gemcitabine in xenograft mouse models.

[1] = test system: human colon cancer Co6044; assay: Antitumor activity in human colon xenograft Co6044 (intraperitoneal); assay type: in vivo; conditions: NCR female mice; intraperitoneally every third day five times; gemcitabine 120 mg/kg, gemcitabine-5′-elaidic acid ester 40 mg/kg
Method: (§1) Fragments of human colon cancers Co5776 and Co6044 are implanted subcutaneously in NCR female mice (7-8 mice/group). Gemcitabine (120 mg/kg) and gemcitabine-5′-elaidic acid ester (40 mg/kg) are administered intraperitoneally, every third day for five times.

[2] = test system: Co-26 murine colon cancer cells; assay: Antitumor effect in Co-26 liver metastasis model; assay type: in vivo; conditions: single dose
Method: Antitumor effect of single dose of gemcitabine-5′-elaidic acid ester or gemcitabine is tested in Balb/C female mice injected with Co-26 murine colon cancer cells in the spleen (a liver metastasis model). […] The activity of gemcitabine is similar.

[3] = test system: human colon cancer Co5776; assay: Antitumor activity in human colon xenograft Co5776; assay type: in vivo; conditions: NCR female mice; intraperitoneally every third day five times; gemcitabine 120 mg/kg, gemcitabine-5′-elaidic acid ester 40 mg/kg
Method: as §1
NCr female mice implanted subcutaneously with human colon carcinoma fragments, Co5776, are treated intraperitoneally. Two different schedules of gemcitabine-5′-elaidic acid ester are administered, once weekly times 2 (Days 11 and 18), and every third day times 5 (Days 11, 14, 17, 20, and 23). Antitumor activity of gemcitabine-5′-elaidic acid ester is similar for 150 mg/kg once weekly, administered twice or 40 mg/kg every third day administered five times.

[4] = test system: CCRF-CEM human leukemia cell line; assay: Triphosphate accumulation and retention in CCRF-CEM cells; assay type: cell-based
Source text: Drugs: Gemcitabine-5′-elaidate was provided by Clavis Pharma (Oslo, Norway), tetra hydro uridine (THU) was from Calbiochem (Merck, Darmstadt, Germany), dipyridamole and ara-C were from Sigma-Aldrich (St. Louis, Mo., USA) and dFdC was from Eli-Lilly (Indianapolis, Ind., USA). The radioactively labeled drugs were obtained from Moravek (Brea, Calif., USA); the drugs were labeled with tritium on the 5-C site of the base. A mix of radioactive and non-radioactive compounds was made for exposure of cells; dFdC and CP-4126 were used at a final concentration of 8.9 μM and a specific activity of 586 and 391 mCi/mmol, respectively.
Cell lines: For the experiments the CCRF-CEM human leukemia cell line and its dCK negative variant (CEM/dCK−) were used. The cell lines were cultured in RPMI medium (BioWhittaker, Verviers, Belgium) supplemented with 10% fetal calf serum (PAA laboratories, Pasching, Austria) and HEPES buffer (BioWhittaker). Of the nucleoside influx transporters, the CEM cell line only expresses the equilibrative nucleoside transporter (hENT) and not the concentrative nucleoside transporter (hCNT). Belt et al. Adv. Enzyme Regul., 1993, 33, 235-52. Dipyridamole (DP) was used to inhibit the influx of the drugs by hENT. In order to get a clean picture, THU was also added to inhibit deamination of ara-C and dFdC.
Triphosphate accumulation: Cells were treated with 1 and 10 μM of dFdC, while for the lipophilic analogs 10 and 100 μM was used. The cells were incubated for 60 minutes and retention of the triphosphates was investigated after 60 and 120 minutes incubation in drug-free medium. Dipyridamole was added to inhibit drug influx by the hENT transporter. After incubation the cell pellet was resuspended in ice-cold PBS and incubated for 20 minutes at 4° C. with 40% trichloroacetic acid. After centrifugation (10,000 g, 10 min, 4° C.) the supernatant was treated with a 2-fold excess of trioctylamine/1,1,2-trichlorotrifluorethane (1:4) and spun down (10,000 g, 1 min) and the aqueous phase was stored at −20° C. until analysis by HPLC on a Whatman Partisphere SAX column (GE healthcare, Chalfont St. Giles, UK) using gradient (dFdC-TP) elution as described earlier. Noordhuis et al., Leuk. Res., 1996, 20, 127-34; Ruiz van Haperen, et al., Biochem. Pharmacol., 1994, 48, 1327-39.

Row | SMILES | antitumor activity (Murine Lewis Lung cells) | toxicity (Murine Lewis Lung cells) | intracellular triphosphate (dFdCTP) level with DP (CEM cells; 60 minutes exposure, with dipyridamole, tetrahydrouridine present) | level of triphosphate over time in the absence of DP (CEM cells; after exposure, without dipyridamole) | survival (Kaplan-Meier), high hENT1 vs hENT1-low tumor (pancreatic cancer) | response in relation to hENT1 mRNA expression level (xenograft mouse models) | antitumor effect [1] | activity compared with gemcitabine [2] | antitumor effect [3] | retention of dFdC-TP concentration after washing away the drugs ([4]; 60 and 120 minutes in drug-free medium) | triphosphates formed after 60 minutes incubation ([4]; dFdC 1 and 10 μM, lipophilic analog 10 and 100 μM) | effect of dipyridamole on dFdC-TP accumulation ([4]; hENT inhibited by dipyridamole)
1 | O=P1(N(CCCl)CCCl)NCCCO1 (stereo not drawn) [CTX, Cyclophosphamide] | highly active | non-toxic | – | – | – | – | – | – | – | – | – | –
2 | Nc1ccn([C@@H]2O[C@H](CO)[C@@H](O)C2(F)F)c(=O)n1 [gemcitabine, 2′2′-difluorodeoxycytidine] | – | – | below level of detection | decreases with time | outperform | better response | Significant antitumor effect | similar | Significant antitumor effect | decreased after washing away the drugs | more triphosphates were formed | abolishing accumulation of dFdC-TP
